The values below come from ChEMBL document CHEMBL3638933, “Pyrrolopyridazine JAK3 inhibitors and their use for the treatment of inflammatory and autoimmune diseases” (2014).

SMILES strings stand for the structures.

Experiment [1] deals with T1, Tyrosine-protein kinase JAK3 (Homo sapiens, UniProt P52333).
T1 sequence (P52333 whole entry): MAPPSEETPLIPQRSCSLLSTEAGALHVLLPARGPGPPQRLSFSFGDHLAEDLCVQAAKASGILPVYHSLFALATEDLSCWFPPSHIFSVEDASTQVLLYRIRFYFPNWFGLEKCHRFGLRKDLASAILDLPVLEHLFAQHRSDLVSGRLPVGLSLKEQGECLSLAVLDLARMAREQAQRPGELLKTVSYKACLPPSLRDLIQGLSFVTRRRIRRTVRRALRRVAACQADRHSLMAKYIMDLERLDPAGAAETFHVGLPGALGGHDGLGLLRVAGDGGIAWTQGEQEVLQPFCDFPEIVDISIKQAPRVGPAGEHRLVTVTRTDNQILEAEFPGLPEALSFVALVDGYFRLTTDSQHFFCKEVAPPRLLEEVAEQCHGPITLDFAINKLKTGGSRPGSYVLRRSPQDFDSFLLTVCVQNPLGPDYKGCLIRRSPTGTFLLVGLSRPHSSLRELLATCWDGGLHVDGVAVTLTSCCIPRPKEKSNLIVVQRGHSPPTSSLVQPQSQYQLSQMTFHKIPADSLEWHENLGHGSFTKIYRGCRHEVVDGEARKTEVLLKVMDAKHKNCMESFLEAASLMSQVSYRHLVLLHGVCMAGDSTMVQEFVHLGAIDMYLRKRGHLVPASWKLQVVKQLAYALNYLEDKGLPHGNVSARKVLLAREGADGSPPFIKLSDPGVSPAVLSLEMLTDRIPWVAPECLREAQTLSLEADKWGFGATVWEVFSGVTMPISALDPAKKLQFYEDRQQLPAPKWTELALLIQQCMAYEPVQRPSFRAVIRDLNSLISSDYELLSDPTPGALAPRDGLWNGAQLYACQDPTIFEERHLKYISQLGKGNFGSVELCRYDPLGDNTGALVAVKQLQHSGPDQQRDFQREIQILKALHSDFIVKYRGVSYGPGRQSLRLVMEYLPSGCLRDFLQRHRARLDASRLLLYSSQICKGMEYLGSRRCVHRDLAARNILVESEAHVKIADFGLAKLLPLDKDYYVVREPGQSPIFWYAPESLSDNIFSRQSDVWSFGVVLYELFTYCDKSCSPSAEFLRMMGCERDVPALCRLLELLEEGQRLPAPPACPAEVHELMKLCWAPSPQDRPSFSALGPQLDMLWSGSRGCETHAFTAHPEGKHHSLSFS
The experiment is described as follows: Reactions were incubated for 30 minutes at room temperature and stopped by the addition of cold trichloroacetic acid (TCA) to a final concentration of 15%. TCA precipitates were collected onto 384 well phosphocellulose filters (Millipore) using a Platemate to transfer the reaction mixture, washed on an EMBLA plate washer and the filters were quantitated using a TopCount 384-well liquid scintillation counter. […] Compounds were dissolved at 10 mM in dimethylsulfoxide (DMSO) and evaluated at six concentrations, each in triplicate. The final concentration of DMSO in the assay equaled 2%.

The target in experiment [2] is Tyrosine-protein kinase JAK1 (Homo sapiens, UniProt P23458). The experiment is described as follows: Kinase Assay: The assay reactions were performed in U-bottom 384-well plates. The final assay volume was 30 ul prepared from 15 ul additions of enzyme and substrates (fluoresceinated peptide and ATP) and test compounds in assay buffer (20 mM HEPES pH 7.4, 10 mM MgCl2, 25 mM beta-glycerol phosphate, 0.015% Brij35 and 4 mM DTT). The reaction was initiated by the combination of GST-JAK1 enzyme with substrates and test compounds. The reactions were incubated at room temperature for 3 hours and terminated by adding 60 ul of 35 mM EDTA to each sample. Each reaction mixture was analyzed on the Caliper LabChip 3000 (Caliper, Hopkinton, MA) by electrophoretic separation of the fluorescent substrate and phosphorylated product. […] The final concentration of reagents in the assays was: ATP, 100 uM; fluoresceinated peptide.
Chain of Tyrosine-protein kinase JAK1 (P23458 whole entry): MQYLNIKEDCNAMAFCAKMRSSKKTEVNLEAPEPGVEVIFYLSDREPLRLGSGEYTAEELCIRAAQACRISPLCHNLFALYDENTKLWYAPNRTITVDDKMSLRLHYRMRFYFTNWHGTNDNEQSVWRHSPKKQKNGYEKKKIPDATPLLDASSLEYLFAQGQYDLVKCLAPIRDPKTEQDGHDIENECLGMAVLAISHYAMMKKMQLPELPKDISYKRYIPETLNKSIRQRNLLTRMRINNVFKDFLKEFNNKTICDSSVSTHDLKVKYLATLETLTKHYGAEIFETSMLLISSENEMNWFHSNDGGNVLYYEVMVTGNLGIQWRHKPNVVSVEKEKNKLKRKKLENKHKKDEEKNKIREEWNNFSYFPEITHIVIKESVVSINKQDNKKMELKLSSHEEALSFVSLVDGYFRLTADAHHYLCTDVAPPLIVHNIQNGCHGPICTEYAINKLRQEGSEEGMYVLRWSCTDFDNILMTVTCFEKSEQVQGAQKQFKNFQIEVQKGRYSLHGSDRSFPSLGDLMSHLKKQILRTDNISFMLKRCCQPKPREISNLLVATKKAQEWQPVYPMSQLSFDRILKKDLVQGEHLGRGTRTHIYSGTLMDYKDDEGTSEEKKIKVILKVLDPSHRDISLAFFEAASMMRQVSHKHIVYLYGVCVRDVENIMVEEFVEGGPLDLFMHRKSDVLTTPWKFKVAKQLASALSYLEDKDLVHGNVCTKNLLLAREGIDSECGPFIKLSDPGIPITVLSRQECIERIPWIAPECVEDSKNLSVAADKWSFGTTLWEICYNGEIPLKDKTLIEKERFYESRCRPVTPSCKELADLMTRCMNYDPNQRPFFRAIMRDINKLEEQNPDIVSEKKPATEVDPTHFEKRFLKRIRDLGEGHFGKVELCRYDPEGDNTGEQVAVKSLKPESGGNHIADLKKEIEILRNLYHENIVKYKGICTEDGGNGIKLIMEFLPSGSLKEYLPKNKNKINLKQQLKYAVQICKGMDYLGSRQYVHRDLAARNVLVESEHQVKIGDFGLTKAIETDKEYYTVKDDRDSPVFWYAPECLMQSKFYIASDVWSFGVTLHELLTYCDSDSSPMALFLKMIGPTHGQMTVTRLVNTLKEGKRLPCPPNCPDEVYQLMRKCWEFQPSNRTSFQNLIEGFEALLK

For `CC1(C)[C@H](Nc2c(C(N)=O)cnn3cc(-c4ccc(C#N)nc4)cc23)CC[C@]1(C)C(N)=O`, the IC50 came to 1 nM in experiment [1] and 5.8 nM in experiment [2].
